In patent publication US9765329B2, “Adipocyte-targeting non-viral gene delivery system” (INDUSTRY-UNIVERSITY COOPERATION FOUNDATION HANYANG …, priority 2013, dated 2017):
“Also recorded” adds a separate entry of the source. Square brackets hold non-standard residues; d marks the D form. Ends that are not written are not given here. Peptide text beside a SMILES is read from it.

Columns and labels:
C57BL/6J obese mice = assay: In vivo internalization into adipose tissue and gene expression
Description: FITC-conjugated ATS-R9 was administered to C57BL/6J obese mouse by tail vein injection. Rhodamine-conjugated lectin was injected to stain blood vessels.
FITC-conjugated ATS-R9 was injected into C57BL/6J obese mice and fixed adipose tissue sections were incubated with biotin-conjugated anti-FITC antibody. Cy3-conjugated ExtrAvidin was used for signal amplification thereof. Images were observed using a multiphoton confocal laser scanning microscope.
Finally, in vivo gene expression was confirmed. To this end, red fluorescence protein (RFP) expressing plasmid was concentrated by FITC-ATS-R9 and the oligo-peptoplexes were injected into C57BL/6J obese mice. Non-treated mice were used as controls. Images were observed using a multiphoton confocal laser scanning microscope.

[1] = system: diet-induced obesity (DIO) mice; assay: In vivo fat homing (pCLE, Cellvizio); conditions: FITC-conjugated peptide, tail vein injection, obese mice
Description: C57BL/6J mice at 3 weeks of age were purchased from Central Lab Animal Inc. (Korea). For the first two weeks, the mice were fed 50% normal diet and 50% rodent diet with 60 kcal % from fat. […] The mice became obese after week 14 (body weight>45 g).
FITC conjugated ATS-9R (10 mg/ml) and FITC-9R (10 mg/ml) were diluted in PBS to a final concentration of 1.5 mg/ml and 100 μl of peptide was injected into obese mice by tail vein injection. Immediately after injection, peptide localization in vasculatures of different organs was observed by Cellvizio (Mauna Kea Technologies, France).
In this example, in vivo experiments were conducted using diet-induced obesity (DIO) mice. FITC-ATS-R9 was administered to the obese mice by tail vein injection to observe the targeting of the ATS-R9 to adipose tissue. Tracking was visualized using probe-based confocal laser endomicroscopy (pCLE, Cellvizio).

3T3-L1 preadipocytes [2] = assay: Targeting of rhodamine B-labeled ATS depending on degree of differentiation; type: cell-based; conditions: RhoB-ATS
Description: (§1) To investigate the location and amount of prohibitin expressed depending on the degree of adipocyte differentiation, two types of adipocytes were treated with rhodamine B-labeled ATS (RhoB-ATS).
(§2) Binding of ATS to prohibitin was determined by an immunoprecipitation assay (FIG. 5a) and the distributions of prohibitin in 3T3-L1 preadipocytes and mature adipocytes were confirmed through the staining results (FIGS. 5b and 5c).

3T3-L1 mature adipocytes = assay: as above; type: cell-based; conditions: RhoB-ATS
Description: as §1, §2

prohibitin = target: T1, prohibitin (Mus musculus, UniProt P67778); assay: Binding of ATS to prohibitin (immunoprecipitation assay)
T1 construct: endogenous in cells; host or cells: 3T3-L1 preadipocytes and differentiated mature adipocytes (day 10)
T1 sequence (P67778 1-272): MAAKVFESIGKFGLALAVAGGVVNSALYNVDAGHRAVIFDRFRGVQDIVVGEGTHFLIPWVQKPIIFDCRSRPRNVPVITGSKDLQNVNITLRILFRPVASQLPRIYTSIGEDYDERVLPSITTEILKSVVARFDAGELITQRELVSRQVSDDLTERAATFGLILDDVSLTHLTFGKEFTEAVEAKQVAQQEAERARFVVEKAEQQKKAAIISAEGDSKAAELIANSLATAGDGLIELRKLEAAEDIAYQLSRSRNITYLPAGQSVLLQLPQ
Description: as §1, §2

obese adipocytes = assay: Comparison of gene delivery ability (luciferase gene); type: cell-based
Description: The ability of ATS-R9 to deliver luciferase gene to obese adipocytes was evaluated. PEI and lipofectamine were used as controls.
Gene delivery efficacies before and after adipocyte differentiation were compared.
Luciferase was used as a gene to be delivered and scrambled ATS was used as a fat-targeting sequence. The ability of (scrambled ATS)-R9 to deliver the gene to obese adipocytes was compared to that of ATS-R9.

3T3-L1 preadipocytes [3] = assay: Internalization of FITC-ATS-R9 into cells (confocal microscopy); type: cell-based
Description: (§3) Cellmask Deep Red was purchased from Invitrogen and DAPI-Fluoromount-G was purchased from Southern Biotech. 3T3-L1 preadipocytes, H9c2, and HEK293 cells were grown and differentiated on coverslips placed in 6 well plates.
(§4) After 24 h of seeding, the cells were treated with the FITC conjugated ATS-R9 (25 μg/ml) and incubated in a time-dependent manner that ranged from 15 min to 72 h.
(§5) After incubation, culture media were replaced, and the cells were washed three times with PBS and fixed in 3.7% formaldehyde. The plasma membranes of the cells were stained with Cellmask Deep Red. The cells were washed again with PBS and mounted in the presence of DAPI to stain the nuclei. Images were captured with a Carl Zeiss confocal microscope.
(§6) To monitor the degree of internalization of ATS-R9 into cells, mature adipocytes and preadipocytes were treated with FITC-labeled ATS-R9 (FITC-ATS-R9) and the delivery of the support to the cells was investigated.

Serum protection assay = type: in vitro ADME; conditions: 50% (vol/vol) mouse serum, 2 h at 37° C., optimum charge ratio
Description: Oligo-peptoplexes were prepared at predetermined charge ratios, mouse serum was added to the polyplexes at a final concentration of 50% (vol/vol), and the samples were incubated for 2 h at 37° C.
For the decomplexation of DNA from the polyplexes after serum incubation, heparin in phosphate-buffered saline (pH 7.4, 0.5 mol/l NaCl) was added to the samples in the presence of 0.01 mol/l EDTA and incubated for 1 h. The samples were loaded in 0.8% agarose gel.

[4] = system: 3T3-L1 differentiated adipocytes; assay: In vitro cytotoxicity (MTT) assay; type: cell-based; conditions: adipocytes at day 10, 48 h after transfection
Description: (§7) Cell viability was measured by MTT [3-(4,5-dimethylthiazol-2-yl)-2,5-diphenyltetrazolium bromide]assay.
(§8) 3T3-L1 differentiated adipocytes were incubated in 24-well plates. The adipocytes (at day 10) were treated with oligo-peptoplexes prepared by luciferase plasmid DNA, plain DMEM medium, and ATS-9R at predetermined charge ratios. PEI polyplexes were used as the control.
(§9) After 48 h of transfection, 50 μl of MTT reagent was added to 500 μl medium in each well and incubated for 3 h at 37° C. The culture media were removed and 500 μl dimethyl sulfoxide (DMSO) was added to each well and incubated for 20 min at room temperature. Absorbance was measured at 570 nm.
(§10) 3T3-L1 differentiated adipocytes at day 10 were transfected with the oligo-peptoplexes. After 48 h of transfection, cell viability was analyzed by MTT assay (n=6).

[5] = In vitro cytotoxicity (MTT) assay; type: cell-based; conditions: mouse, 3T3-L1 differentiated adipocytes (day 10); adipocytes at day 10, 48 h after transfection, charge ratio up to 9; read-out: cell viability
Description: as §7, §8, §9, §10

[6] = Zeta potential and size measurement (DLS); type: physicochemical
Description: 5 μg of luciferase plasmid DNA (p-β-Luci), deionized water, and ATS-R9 (charge ratios: 0.5, 1, 3, 5, 7, and 9) were incubated for 30 min at room temperature to construct oligo-peptoplexes. The mean diameters and surface zeta potentials of the oligo-peptoplexes were measured using DLS equipped with a Zetasizer-Nano ZS (Malvern Instruments, UK).

Fabp4 gene = assay: fabp4 sh-RNA gene silencing (RT-PCR); type: cell-based; conditions: 3T3-L1 mature adipocytes, 2 μg of fabp4 sh-RNA
Description: First, 3T3-L1 mature adipocytes were transfected with 2 μg of fabp4 sh-RNA by ATS-R9, PEI, and lipofectamine and gene silencing efficiency was measured by RT-PCR. GAPDH was used as an endogenous control. As a result, the Fabp4 gene silencing efficiency was 70% or more (FIG. 15).

[7] = system: luciferase plasmid DNA (p-β-Luci); assay: Gel retardation assay; type: physicochemical; conditions: charge ratio of ≧3
Description: 1 μg of luciferase plasmid DNA (p-β-Luci, Promega (USA)), deionized water, and ATS-R9 (charge ratios: 0.25, 0.5, 1, 3, 5, 7, and 9) were incubated for 30 min at room temperature to construct oligo-peptoplexes. The oligo-peptoplexes were subjected to electrophoresis under 0.5% TBE buffer solution in 0.8% agarose gel for 25 min (100 V). Naked DNA was used as a control. The DNA condensation efficiency of the ATS-R9 was compared with that of branched PEI (25 KDa, Sigma, USA).
The condensation efficacy of ATS-R9 was compared with that of branched PEI (25 kDa).
Oligo-peptoplexes were prepared with luciferase plasmid DNA (p-β-Luci), deionized water, and ATS-R9 or PEI with predetermined charge ratios and incubated for 30 min at room temperature.

[8] = system: 3T3-L1 differentiated adipocytes; assay: In vitro transfection efficiency (luciferase assay); type: cell-based; conditions: charge ratio of 5, mature adipocytes at day 10, 72 h
Description: A luciferase assay kit was purchased from Promega (USA). A DC protein assay kit and bovine serum albumin standard were purchased from Bio-Rad Laboratories (USA). 3T3-L1 preadipocytes and differentiated adipocytes were seeded in 24 well plates.
Oligo-peptoplexes were prepared by mixing ATS-9R and 2 μg of luciferase plasmid DNA at a charge ratio of 5. R9 and PEI polyplexes were used as controls and prepared at a charge ratio of 5.
The cell lysates were then scraped, harvested, transferred to 1.5 ml microtubes, and centrifuged for 3 min at 13,000 rpm.
The luminescence of the cell lysates was measured on a 96-well plate luminometer (Berthold Detection Systems, Germany) with 20-second integration and expressed as relative luminescence units (RLU)/mg of cell protein. Protein concentration was determined by the DC protein assay kit with bovine serum albumin standard.
Mature adipocytes at day 10 of differentiation were transfected with p-β-Luci by ATS-R9, R9, and PEI at a charge ratio of 5.
To determine an optimum transfection time point, 3T3-L1 differentiated adipocytes were transfected with luciferase plasmid DNA (p-β-Luci) by ATS-R9 and PEI at a charge ratio of 5 at different days of differentiation.

[9] = system: 3T3-L1 differentiated adipocytes; assay: Internalization of FITC-ATS-R9 into cells (confocal microscopy); type: cell-based; conditions: FITC-conjugated ATS-R9 25 μg/ml, adipocytes at day 10
Description: as §3, §4, §5, §6
3T3-L1 differentiated adipocytes (at day 10) were treated with FITC-conjugated ATS-R9 (25 μg/ml) and incubated for predetermined periods. The plasma membranes of the cells were stained with Cellmask Deep Red and the nuclei were counterstained with DAPI. Blue channel (for DAPI) is depicted as white to show nuclear localization of ATS-R9. Images were captured with a confocal laser scanning microscope. Scale bar: 10 μm.

## FITC-ATS-R9: FITC conjugated ATS-R9 (CKGGRAKDRRRRRRRRRC), SEQ ID NO: 2 (not fully specified (N-terminus); cysteine pairing not given here; also: FITC conjugated, site not given here)
C57BL/6J obese mice; RFP expressing plasmid concentrated by FITC-ATS-R9
  in vivo RFP gene expression: clearly confirmed
C57BL/6J obese mice; anti-FITC antibody, Cy3-ExtrAvidin
  adipose tissue homing (immunofluorescence assay): confirms the induction

## CRRRRRRRRRC (C[dR][dR][dR][dR][dR][dR][dR][dR][dR]C; cysteine pairing not given here) [R9, reference compound]
[1]
  aggregation in fat pad vasculatures: aggregation was not observed in the fat vasculatures
  binding to fat pad microvessels: no binding

## CKGGRAKDC (optionally rhodamine B labeled; Synthetic peptide adipocyte targeting sequence) [ATS, used free or rhodamine B-labeled]
3T3-L1 preadipocytes [2]
  targeting efficiency to adipocytes before differentiation: not significantly high
3T3-L1 mature adipocytes
  targeting efficiency / delivery to obese cells after differentiation: effectively delivered; also recorded: very high
prohibitin
  ability to bind to prohibitin: high ability to bind to prohibitin

## C[C@H](NC(=O)[C@H](CCCNC(=N)N)NC(=O)CNC(=O)CNC(=O)[C@H](CCCCN)NC(=O)[C@@H](N)CS)C(=O)N[C@@H](CCCCN)C(=O)N[C@@H](CC(=O)O)C(=O)N[C@@H](CCCNC(=N)N)C(=O)N[C@@H](CCCNC(=N)N)C(=O)N[C@@H](CCCNC(=N)N)C(=O)N[C@@H](CCCNC(=N)N)C(=O)N[C@@H](CCCNC(=N)N)C(=O)N[C@@H](CCCNC(=N)N)C(=O)N[C@@H](CCCNC(=N)N)C(=O)N[C@@H](CCCNC(=N)N)C(=O)N[C@@H](CCCNC(=N)N)C(=O)N[C@@H](CS)C(=O)O [ATS-R9] (H-CKGGRAKDRRRRRRRRRC-OH; N-terminus and C-terminus assumed)
Obese adipocytes; before and after adipocyte differentiation
  gene delivery efficacy as differentiation into obese adipocytes proceeded: increased
Obese adipocytes; luciferase gene, PEI and lipofectamine as controls
  gene delivery efficacy to obese adipocytes: superior to those of the other delivery systems PEI and lipofectamine
3T3-L1 preadipocytes [3]
  migration to the nuclei observed after: > 48 h
Serum protection assay
  DNA degradation in serum: protected DNA from degradation
[4]
  toxicity to differentiated adipocytes: non-toxicity
[5]
  viability at 48 h: ≥ 90%
[6]; ATS-R9 bound to DNA, neutral conditions
  size of condensed DNA complex: ≤ 200 nm
[6]; charge ratio of ≧1 (description)
  zeta potential: positive
C57BL/6J obese mice; tail vein injection, multiphoton confocal microscopy
  internalization into in vivo adipose tissues: penetrated the blood vessels and was gradually internalized into adipocytes
Fabp4 gene
  Fabp4 gene silencing efficiency: ≥ 70%
[7]
  DNA condensation (no DNA migration): complete DNA condensation
[8]
  transfection efficiency (luciferase gene expression): higher transfection efficiency and gene expression efficiency than PEI and R9
[9]
  strong fluorescence signals / steady state maintained: 48 h
  time to reach the cytoplasm: ≤ 15 min
  time to reach the nuclei: ≤ 1 h
[1]
  aggregation in fat pad vasculatures: aggregated in the fat pad vasculature
  aggregation in the other organs (liver, kidney): no aggregation was observed
  binding to fat pad microvessels: bound to the fat pad microvessels
